# Source: the supplement of paper PMC10307832
# Columns and labels:
# Test in all cases: relative viability (nuclei count vs DMSO), 5 days (fraction); higher = more cells survive
# [1] = system: BEN
# Outline: (§1)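 Relative viability equals treated-well nuclei counts divided by vehicle-well nuclei counts. Counts came from 4× images of lung cancer cell lines grown in 1536-well plates for 5 days after pin-tool dosing on the day after seeding. Dosing used one drug alone or a fixed anchor-drug dose plus five library-drug doses (not always all listed) in √10 steps, and values are medians of duplicate plates.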
# [2] = system: NCI-H838
# Outline: as §1
# [3] = system: LCLC-97TM1
# Outline: as §1
# [4] = system: HOP-62
# Outline: as §1
# [5] = system: LOU-NH91
# Outline: as §1
# [6] = system: NCI-H1355
# Outline: as §1
# [7] = system: NCI-H1651
# Outline: as §1
# [8] = system: SK-LU-1
# Outline: as §1
# [9] = system: SW 1573
# Outline: as §1
# [10] = system: 201T
# Outline: as §1
# [11] = system: NCI-H3122
# Outline: as §1
# [12] = system: NCI-H441
# Outline: as §1
# [13] = system: NCI-H1915
# Outline: as §1
# [14] = system: NCI-H2347
# Outline: as §1
# [15] = system: NCI-H650
# Outline: as §1
# [16] = system: CAL-12T
# Outline: as §1
# [17] = system: NCI-H1563
# Outline: as §1
# [18] = system: NCI-H322M
# Outline: as §1
# [19] = system: HCC-78
# Outline: as §1
# [20] = system: NCI-H1395
# Outline: as §1
# [21] = system: NCI-H2126
# Outline: as §1
# [22] = system: NCI-H1944
# Outline: as §1
# [23] = system: NCI-H1793
# Outline: as §1
compound,measurement,setting,value
CCNC(=O)c1noc(-c2cc(C(C)C)c(O)cc2O)c1-c1ccc(CN2CCOCC2)cc1 [Luminespib] + N=C(N)NC(=N)NCCc1ccccc1 [Phenformin] (partner 250 µM),relative viability,[1]; first compound 0.002 µM,0.259
same,relative viability,[1]; first compound 0.006325 µM,0.268
same,relative viability,[1]; first compound 0.02 µM,0.273
same,relative viability,[1]; first compound 0.06325 µM,0.216
same,relative viability,[1]; first compound 0.2 µM,0.199
same,relative viability,[2]; first compound 0.002 µM,0.664
same,relative viability,[2]; first compound 0.006325 µM,0.55
same,relative viability,[2]; first compound 0.02 µM,0.257
same,relative viability,[2]; first compound 0.06325 µM,0.107
same,relative viability,[2]; first compound 0.2 µM,0.114
same,relative viability,[3]; first compound 0.002 µM,0.399
same,relative viability,[3]; first compound 0.006325 µM,0.374
same,relative viability,[3]; first compound 0.02 µM,0.426
same,relative viability,[3]; first compound 0.06325 µM,0.428
same,relative viability,[3]; first compound 0.2 µM,0.102
same,relative viability,[4]; first compound 0.002 µM,0.674
same,relative viability,[4]; first compound 0.006325 µM,0.721
same,relative viability,[4]; first compound 0.02 µM,0.696
same,relative viability,[4]; first compound 0.06325 µM,0.364
same,relative viability,[4]; first compound 0.2 µM,0.165
same,relative viability,[5]; first compound 0.002 µM,0.741
same,relative viability,[5]; first compound 0.006325 µM,0.716
same,relative viability,[5]; first compound 0.02 µM,0.525
same,relative viability,[5]; first compound 0.06325 µM,0.287
same,relative viability,[5]; first compound 0.2 µM,0.322
same,relative viability,[6]; first compound 0.002 µM,0.431
same,relative viability,[6]; first compound 0.006325 µM,0.456
same,relative viability,[6]; first compound 0.02 µM,0.382
same,relative viability,[6]; first compound 0.06325 µM,0.254
same,relative viability,[6]; first compound 0.2 µM,0.17
same,relative viability,[7]; first compound 0.002 µM,0.298
same,relative viability,[7]; first compound 0.006325 µM,0.293
same,relative viability,[7]; first compound 0.02 µM,0.304
same,relative viability,[7]; first compound 0.06325 µM,0.108
same,relative viability,[7]; first compound 0.2 µM,0.141
same,relative viability,[8]; first compound 0.002 µM,0.53
same,relative viability,[8]; first compound 0.006325 µM,0.411
same,relative viability,[8]; first compound 0.02 µM,0.192
same,relative viability,[8]; first compound 0.06325 µM,0.0958
same,relative viability,[8]; first compound 0.2 µM,0.0878
same,relative viability,[9]; first compound 0.002 µM,0.39
same,relative viability,[9]; first compound 0.006325 µM,0.339
same,relative viability,[9]; first compound 0.02 µM,0.262
same,relative viability,[9]; first compound 0.06325 µM,0.0845
same,relative viability,[9]; first compound 0.2 µM,0.0847
same,relative viability,[10]; first compound 0.002 µM,0.396
same,relative viability,[10]; first compound 0.006325 µM,0.465
same,relative viability,[10]; first compound 0.02 µM,0.477
same,relative viability,[10]; first compound 0.06325 µM,0.373
same,relative viability,[10]; first compound 0.2 µM,0.24
same,relative viability,[11]; first compound 0.002 µM,0.427
same,relative viability,[11]; first compound 0.006325 µM,0.32
same,relative viability,[11]; first compound 0.02 µM,0.132
same,relative viability,[11]; first compound 0.06325 µM,0.0959
same,relative viability,[11]; first compound 0.2 µM,0.0895
same,relative viability,[12]; first compound 0.002 µM,0.841
same,relative viability,[12]; first compound 0.006325 µM,0.689
same,relative viability,[12]; first compound 0.02 µM,0.732
same,relative viability,[12]; first compound 0.06325 µM,0.216
same,relative viability,[12]; first compound 0.2 µM,0.135
same,relative viability,[13]; first compound 0.002 µM,0.361
same,relative viability,[13]; first compound 0.006325 µM,0.352
same,relative viability,[13]; first compound 0.02 µM,0.407
same,relative viability,[13]; first compound 0.06325 µM,0.293
same,relative viability,[13]; first compound 0.2 µM,0.0788
same,relative viability,[14]; first compound 0.002 µM,0.406
same,relative viability,[14]; first compound 0.006325 µM,0.269
same,relative viability,[14]; first compound 0.02 µM,0.417
same,relative viability,[14]; first compound 0.06325 µM,0.381
same,relative viability,[14]; first compound 0.2 µM,0.198
same,relative viability,[15]; first compound 0.002 µM,0.437
same,relative viability,[15]; first compound 0.006325 µM,0.453
same,relative viability,[15]; first compound 0.02 µM,0.391
same,relative viability,[15]; first compound 0.06325 µM,0.213
same,relative viability,[15]; first compound 0.2 µM,0.121
same,relative viability,[16]; first compound 0.002 µM,0.578
same,relative viability,[16]; first compound 0.006325 µM,0.512
same,relative viability,[16]; first compound 0.02 µM,0.15
same,relative viability,[16]; first compound 0.06325 µM,0.101
same,relative viability,[16]; first compound 0.2 µM,0.0963
same,relative viability,[17]; first compound 0.002 µM,0.66
same,relative viability,[17]; first compound 0.006325 µM,0.649
same,relative viability,[17]; first compound 0.02 µM,0.597
same,relative viability,[17]; first compound 0.06325 µM,0.455
same,relative viability,[17]; first compound 0.2 µM,0.465
same,relative viability,[18]; first compound 0.002 µM,0.801
same,relative viability,[18]; first compound 0.006325 µM,0.729
same,relative viability,[18]; first compound 0.02 µM,0.717
same,relative viability,[18]; first compound 0.06325 µM,0.287
same,relative viability,[18]; first compound 0.2 µM,0.278
same,relative viability,[19]; first compound 0.002 µM,0.689
same,relative viability,[19]; first compound 0.006325 µM,0.52
same,relative viability,[19]; first compound 0.06325 µM,0.767
same,relative viability,[19]; first compound 0.2 µM,0.257
same,relative viability,[20]; first compound 0.002 µM,0.448
same,relative viability,[20]; first compound 0.006325 µM,0.401
same,relative viability,[20]; first compound 0.02 µM,0.39
same,relative viability,[20]; first compound 0.06325 µM,0.326
same,relative viability,[20]; first compound 0.2 µM,0.335
same,relative viability,[21]; first compound 0.002 µM,0.523
same,relative viability,[21]; first compound 0.006325 µM,0.506
same,relative viability,[21]; first compound 0.02 µM,0.497
same,relative viability,[21]; first compound 0.06325 µM,0.279
same,relative viability,[21]; first compound 0.2 µM,0.307
same,relative viability,[22]; first compound 0.002 µM,0.219
same,relative viability,[22]; first compound 0.006325 µM,0.189
same,relative viability,[22]; first compound 0.02 µM,0.205
same,relative viability,[22]; first compound 0.06325 µM,0.112
same,relative viability,[22]; first compound 0.2 µM,0.111
same,relative viability,[23]; first compound 0.002 µM,0.367
same,relative viability,[23]; first compound 0.006325 µM,0.373
same,relative viability,[23]; first compound 0.02 µM,0.151
same,relative viability,[23]; first compound 0.06325 µM,0.102
same,relative viability,[23]; first compound 0.2 µM,0.138
